Earlier results, collected in US20240279338A1, “Combination Treatment of Cancer” (Ares Trading S.A., priority 2021, published 2024).

Biological target: T1, A3 receptor (Homo sapiens, UniProt P0DMS8)
T1 sequence (P0DMS8 1-318): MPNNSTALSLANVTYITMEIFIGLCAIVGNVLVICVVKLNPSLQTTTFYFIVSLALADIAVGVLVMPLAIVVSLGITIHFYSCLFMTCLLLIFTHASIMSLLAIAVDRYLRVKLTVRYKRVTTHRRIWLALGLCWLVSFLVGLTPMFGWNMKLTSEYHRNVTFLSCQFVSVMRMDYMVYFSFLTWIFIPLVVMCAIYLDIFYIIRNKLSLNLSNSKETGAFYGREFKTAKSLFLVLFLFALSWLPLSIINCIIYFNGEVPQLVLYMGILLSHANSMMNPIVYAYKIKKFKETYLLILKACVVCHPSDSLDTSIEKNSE
Conditions: cited from earlier work

In the case of `Nc1ncnc2c1ncn2[C@@H]1O[C@H](CO)[C@@H](O)[C@H]1O` [adenosine], the “adenosine sensitivity (affinity) of receptor” value is listed as 100 nM.
